Experimental data as given in ChEMBL document CHEMBL5131517 (ACS Med Chem Lett, 2022).

How the values were obtained:
Format in all cases: functional, cell-based
[1] = target: T1, 5-hydroxytryptamine receptor 2C (Homo sapiens) (UniProt P28335); experiment: Agonist activity at human 5HT2C receptor stably expressed in Flp-In-T-REx-293 cells assessed as maximal Gq-mediated calcium flux by Fluo-4 direct dye based FLIPR Tetra assay relative to control
T1 sequence (whole entry): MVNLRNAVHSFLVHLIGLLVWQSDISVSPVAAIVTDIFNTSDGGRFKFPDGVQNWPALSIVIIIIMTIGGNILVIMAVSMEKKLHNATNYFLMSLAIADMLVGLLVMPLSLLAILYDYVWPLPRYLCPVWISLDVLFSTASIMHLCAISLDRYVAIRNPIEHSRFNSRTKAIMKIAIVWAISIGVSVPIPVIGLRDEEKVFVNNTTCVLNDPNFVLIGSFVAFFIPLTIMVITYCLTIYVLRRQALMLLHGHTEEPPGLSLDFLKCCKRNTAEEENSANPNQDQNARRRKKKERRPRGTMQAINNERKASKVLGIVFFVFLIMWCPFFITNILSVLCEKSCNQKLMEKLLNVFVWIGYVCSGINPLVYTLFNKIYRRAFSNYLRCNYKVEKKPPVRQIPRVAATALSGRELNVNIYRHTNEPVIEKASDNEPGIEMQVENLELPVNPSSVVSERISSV

[2] = target: T2, 5-hydroxytryptamine receptor 2A (Homo sapiens, UniProt P28223); experiment: Agonist activity at human 5HT2A receptor stably expressed in Flp-In-T-REx-293 cells assessed as maximal Gq-mediated calcium flux by Fluo-4 direct dye based FLIPR Tetra assay relative to control
T2 sequence (P28223 whole entry): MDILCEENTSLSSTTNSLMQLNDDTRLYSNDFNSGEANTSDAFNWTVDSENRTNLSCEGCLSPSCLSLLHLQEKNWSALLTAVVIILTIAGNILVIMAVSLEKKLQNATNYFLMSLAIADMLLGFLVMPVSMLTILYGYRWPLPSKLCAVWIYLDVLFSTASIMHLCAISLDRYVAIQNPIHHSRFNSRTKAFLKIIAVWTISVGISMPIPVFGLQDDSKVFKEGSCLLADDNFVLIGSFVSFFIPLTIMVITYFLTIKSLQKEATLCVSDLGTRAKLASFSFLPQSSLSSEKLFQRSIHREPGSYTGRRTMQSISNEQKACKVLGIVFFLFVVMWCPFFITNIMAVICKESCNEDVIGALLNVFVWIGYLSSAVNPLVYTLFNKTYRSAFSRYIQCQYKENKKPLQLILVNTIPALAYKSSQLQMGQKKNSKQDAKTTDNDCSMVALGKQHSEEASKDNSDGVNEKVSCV

[3] = target: T3, 5-hydroxytryptamine receptor 2C (Homo sapiens, UniProt P28335); experiment: Agonist activity at human 5HT2C receptor stably expressed in Flp-In-T-REx-293 cells assessed as increase in Gq-mediated calcium flux by Fluo-4 direct dye based FLIPR Tetra assay
T3 sequence (P28335 whole entry): T1 sequence (whole entry)

[4] = target: T2, 5-hydroxytryptamine receptor 2A; experiment: Agonist activity at human 5HT2A receptor stably expressed in Flp-In-T-REx-293 cells assessed as increase in Gq-mediated calcium flux by Fluo-4 direct dye based FLIPR Tetra assay

Row | Compound | Emax ([1]; filed as agonist) | Emax ([2]; filed as agonist) | EC50 ([3]; read-out: EC50) | EC50 [4] | Emax [1] | Emax [2] | EC50 ([3]; read-out: pEC50 (converted))
1 | Clc1ccc2[nH]c3c(c2c1)CCNC3C1CCOCC1 (centres undefined) | 63.8% | 42.8% | 295 nM | 371 nM |  |  | 
2 | Oc1ccc(C2NCCc3c2[nH]c2ccc(Cl)cc32)c(O)c1 (centres undefined) | 102% | 91.2% | 1.9 nM | 1.5 nM |  |  | 
3 | CCCC1NCCc2c1[nH]c1ccc(Cl)cc21 (centres undefined) |  | 50.1% | > 10000 nM | 646 nM |  |  | 
4 | Clc1ccc2[nH]c3c(c2c1)CCNC3c1ccncc1Cl (centres undefined) |  | 57.1% | 2810 nM | 849 nM | 27.3% |  | 
5 | Fc1ccc2[nH]c3c(c2c1)CCNC3c1ccc2ccccc2c1 (centres undefined) | 103% | 79.1% | 186 nM | 195 nM |  |  | 
6 | Fc1ccc2[nH]c3c(c2c1)CCNC3c1cccs1 (centres undefined) | 102% |  | 147 nM | 409 nM |  | 36.4% | 
7 | Oc1c(Br)cccc1C1NCCc2c1[nH]c1ccc(Cl)cc21 (centres undefined) | 107% | 97.9% | 68.6 nM | 74.5 nM |  |  | 
8 | Oc1ccc2[nH]c3c(c2c1)CCNC3c1ccccc1C(F)(F)F (centres undefined) | 100% | 100% | 76.4 nM | 120 nM |  |  | 
9 | Oc1ccc(C2NCCc3c2[nH]c2ccc(F)cc32)cc1 (centres undefined) | 104% | 99.9% | 29.8 nM | 58.2 nM |  |  | 30.2 nM
10 | Cc1cccc(C2NCCc3c2[nH]c2ccc(F)cc32)c1 (centres undefined) | 114% |  | 306 nM | 160 nM |  | 39.9% | 
11 | Fc1ccc2[nH]c3c(c2c1)CCNC3C(c1ccccc1)c1ccccc1 (centres undefined) | 103% | 92.5% | 954 nM | 1910 nM |  |  | 
12 | Clc1ccc2[nH]c3c(c2c1)CCNC3c1cccs1 (centres undefined) | 48.6% |  | 602 nM | 724 nM |  | 23.7% | 
13 | Oc1ccc2[nH]c3c(c2c1)CCNC3c1cc(Br)ccc1O (centres undefined) | 104% | 85.9% | 194 nM | 455 nM |  |  | 
14 | Cc1ccc(C2NCCc3c2[nH]c2ccc(Cl)cc32)cc1 (centres undefined) | 97.2% | 94.1% | 62.5 nM | 303 nM |  |  | 
15 | Oc1ccc2[nH]c3c(c2c1)CCNC3c1ccc(Br)cc1O (centres undefined) | 100% | 67.8% | 173 nM | 364 nM |  |  | 
16 | Cn1ccnc1C1NCCc2c1[nH]c1ccc(O)cc21 (centres undefined) | 87.1% | 100% | 97 nM | 79 nM |  |  | 
17 | Fc1ccc2[nH]c3c(c2c1)CCNC3c1ccccc1Cl (centres undefined) | 88.1% |  | 872 nM | 278 nM |  | 28.1% | 
18 | Oc1ccccc1C1NCCc2c1[nH]c1ccc(F)cc21 (centres undefined) | 100% | 96.2% | 4.3 nM | 26 nM |  |  | 
19 | Oc1cccc(C2NCCc3c2[nH]c2ccc(F)cc32)c1 (centres undefined) | 123% | 83.2% | 130 nM | 208 nM |  |  | 
20 | COc1cc(OC)c(C2NCCc3c2[nH]c2ccc(O)cc32)cc1OC (centres undefined) | 109% | 102% | 7.6 nM | 3.8 nM |  |  | 
21 | Oc1ccc2[nH]c3c(c2c1)CCNC3c1ccccc1O (centres undefined) | 103% |  |  |  |  | 26.9% | 
22 | Fc1ccc2[nH]c3c(c2c1)CCNC3c1nccs1 (centres undefined) |  |  | 1260 nM |  | 39.4% |  | 
23 | COc1ccc(C2NCCc3c2[nH]c2ccc(O)cc32)c(O)c1 (centres undefined) | 114% | 103% | 0.8 nM | 0.5 nM |  |  | 
24 | CCC1NCCc2c1[nH]c1ccc(O)cc21 (centres undefined) | 97.6% | 85.1% | 61 nM | 195 nM |  |  | 

Row | Compound | Emax ([1]; filed as agonist) | Emax ([2]; filed as agonist) | EC50 ([3]; read-out: EC50) | EC50 [4] | Emax [1] | Emax [2] | EC50 ([3]; read-out: pEC50 (converted))
25 | Clc1ccc2[nH]c3c(c2c1)CCNC3CCc1ccccc1 (centres undefined) | 98.5% | 101% | 15.8 nM | 64 nM |  |  | 
26 | Fc1ccccc1C1NCCc2c1[nH]c1ccc(Cl)cc21 (centres undefined) |  |  | 1160 nM | 8000 nM | 13.9% | 23.2% | 
27 | Fc1ccc2[nH]c3c(c2c1)CCNC3C1CCOCC1 (centres undefined) | 42.3% |  | 891 nM | 354 nM |  | 34.1% | 
28 | COc1ccccc1C1NCCc2c1[nH]c1ccc(Cl)cc21 (centres undefined) | 82.9% | 41.6% | 284 nM | 207 nM |  |  | 
29 | Oc1ccc2[nH]c3c(c2c1)CCNC3c1cc(Cl)ccc1O (centres undefined) | 97.1% | 47.6% | 754 nM | 1570 nM |  |  | 
30 | Oc1ccc2[nH]c3c(c2c1)CCNC3c1ccccc1Cl (centres undefined) |  |  |  | 1420 nM |  | 14.3% | 
31 | Oc1ccc(C2NCCc3c2[nH]c2ccc(O)cc32)cc1 (centres undefined) | 99.4% | 80% | 152 nM | 159 nM |  |  | 
32 | Oc1ccccc1C1NCCc2c1[nH]c1ccc(Cl)cc21 (centres undefined) | 103% | 92.7% | 15.3 nM | 51.7 nM |  |  | 
33 | COc1ccccc1C1NCCc2c1[nH]c1ccc(O)cc21 (centres undefined) |  |  |  | 269 nM |  | 21.5% | 
34 | COc1ccc2cc(C3NCCc4c3[nH]c3ccc(F)cc43)ccc2c1 (centres undefined) | 76.3% |  | 3390 nM | 2820 nM |  | 30.5% | 
35 | Fc1ccc2[nH]c3c(c2c1)CCNC3c1cc2ccccc2s1 (centres undefined) | 110% | 40% | 912 nM | 1550 nM |  |  | 
36 | Oc1ccc2[nH]c3c(c2c1)CCNC3c1ccccc1 (centres undefined) |  |  |  | 2510 nM |  | 26.3% | 
37 | Clc1ccc2[nH]c3c(c2c1)CCNC3c1ccc(Cl)s1 (centres undefined) | 117% | 100% | 44 nM | 177 nM |  |  | 
38 | Clc1ccc2[nH]c3c(c2c1)CCNC3c1cc2ccccc2s1 (centres undefined) | 105% | 88% | 39 nM | 151 nM |  |  | 
39 | Oc1c(Br)cccc1C1NCCc2c1[nH]c1ccc(F)cc21 (centres undefined) | 109% | 93.1% | 66.5 nM | 116 nM |  |  | 
40 | Oc1ccc2[nH]c3c(c2c1)CCNC3c1ccccc1F (centres undefined) | 102% | 91.4% | 13.2 nM | 23 nM |  |  | 
41 | CCC1NCCc2c1[nH]c1ccc(Cl)cc21 (centres undefined) | 80.8% | 74.3% | 7940 nM | 398 nM |  |  | 
42 | Cc1cccc(C2NCCc3c2[nH]c2ccc(O)cc32)c1 (centres undefined) | 99.1% | 60.9% | 191 nM | 244 nM |  |  | 
43 | Fc1ccc2[nH]c3c(c2c1)CCNC3c1cncnc1 (centres undefined) | 101% | 95.1% |  |  |  |  | 
44 | NCCc1c[nH]c2ccc(O)cc12 |  | 100% |  |  |  |  | 
45 | Fc1ccc2[nH]c3c(c2c1)CCNC3Cc1ccccc1 (centres undefined) |  | 44.4% |  | 1330 nM |  |  | 
46 | Clc1ccc2[nH]c3c(c2c1)CCNC3Cc1ccccc1 (centres undefined) |  | 56.1% |  | 2620 nM |  |  | 
47 | Oc1ccc2[nH]c3c(c2c1)CCNC3CCc1ccccc1 (centres undefined) |  | 45.8% |  | 139 nM |  |  | 
48 | CCCC1NCCc2c1[nH]c1ccc(F)cc21 (centres undefined) |  |  | > 10000 nM | > 10000 nM |  |  | 
